Results on 14 compounds are retold here after patent publication US11306092B2, “Amino indole compounds useful as TLR inhibitors” (BRISTOL-MYERS SQUIBB COMPANY, priority 2017, dated 2022).

Format in all cases: cell-based
For one experiment, the target named is T1, human TLR8 (Homo sapiens, UniProt Q9NR97).
T1 construct: host or cells: HEK-Blue cells
T1 sequence (Q9NR97 27-1041): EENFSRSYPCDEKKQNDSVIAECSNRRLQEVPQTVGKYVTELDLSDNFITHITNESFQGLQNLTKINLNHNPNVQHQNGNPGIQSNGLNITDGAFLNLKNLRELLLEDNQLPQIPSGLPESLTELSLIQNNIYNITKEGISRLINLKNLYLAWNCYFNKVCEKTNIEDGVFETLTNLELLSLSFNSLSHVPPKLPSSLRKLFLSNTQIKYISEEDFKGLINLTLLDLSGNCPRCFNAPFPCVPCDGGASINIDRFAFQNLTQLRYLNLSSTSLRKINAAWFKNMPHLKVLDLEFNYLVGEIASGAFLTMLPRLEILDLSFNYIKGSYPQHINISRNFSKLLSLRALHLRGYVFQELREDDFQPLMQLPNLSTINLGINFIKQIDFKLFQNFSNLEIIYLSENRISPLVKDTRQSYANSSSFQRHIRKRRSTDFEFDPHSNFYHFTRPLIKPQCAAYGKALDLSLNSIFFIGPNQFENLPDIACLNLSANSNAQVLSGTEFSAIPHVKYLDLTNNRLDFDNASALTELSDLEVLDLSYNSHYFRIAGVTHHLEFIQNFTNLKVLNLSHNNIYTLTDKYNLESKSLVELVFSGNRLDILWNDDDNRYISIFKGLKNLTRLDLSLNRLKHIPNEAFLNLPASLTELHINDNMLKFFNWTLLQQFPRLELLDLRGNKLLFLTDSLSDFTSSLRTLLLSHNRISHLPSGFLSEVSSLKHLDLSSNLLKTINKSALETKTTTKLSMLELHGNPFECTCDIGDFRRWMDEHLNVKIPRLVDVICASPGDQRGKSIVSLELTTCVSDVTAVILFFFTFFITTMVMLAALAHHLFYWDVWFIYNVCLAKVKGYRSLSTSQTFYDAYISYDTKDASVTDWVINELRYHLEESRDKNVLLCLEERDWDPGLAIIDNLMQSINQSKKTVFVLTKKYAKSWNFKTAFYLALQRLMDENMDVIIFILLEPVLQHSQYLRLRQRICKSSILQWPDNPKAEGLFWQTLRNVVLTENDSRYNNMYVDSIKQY
Description: TLR8 inhibition reporter assay (HEK-Blue SEAP reporter). As to conditions: HEK-Blue cells overexpressing human TLR8; R848 15.9 μM; 22 hour incubation. The method in brief:
(§1)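 Agonists used: gardiquimod 7.5 μM (TLR7), R848 15.9 μM (TLR8), ODN2006 5 nM (TLR9), added after 30 min room-temperature compound pre-treatment (0.05 nM–50 μM) of receptor-overexpressing HEK-Blue cells. SEAP reporter (NF-κB/AP-1 driven) read after 22 h at 37 °C; inhibition scaled between agonist+DMSO and reference-inhibitor wells.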
On the technique in general: Reporter assays use an easily measured gene product as a stand-in for the process of interest.

For the next experiment, the target named is T2, human TLR7 (Homo sapiens, UniProt Q9NYK1).
T2 construct: host or cells: HEK-Blue cells
T2 sequence (Q9NYK1 27-1049): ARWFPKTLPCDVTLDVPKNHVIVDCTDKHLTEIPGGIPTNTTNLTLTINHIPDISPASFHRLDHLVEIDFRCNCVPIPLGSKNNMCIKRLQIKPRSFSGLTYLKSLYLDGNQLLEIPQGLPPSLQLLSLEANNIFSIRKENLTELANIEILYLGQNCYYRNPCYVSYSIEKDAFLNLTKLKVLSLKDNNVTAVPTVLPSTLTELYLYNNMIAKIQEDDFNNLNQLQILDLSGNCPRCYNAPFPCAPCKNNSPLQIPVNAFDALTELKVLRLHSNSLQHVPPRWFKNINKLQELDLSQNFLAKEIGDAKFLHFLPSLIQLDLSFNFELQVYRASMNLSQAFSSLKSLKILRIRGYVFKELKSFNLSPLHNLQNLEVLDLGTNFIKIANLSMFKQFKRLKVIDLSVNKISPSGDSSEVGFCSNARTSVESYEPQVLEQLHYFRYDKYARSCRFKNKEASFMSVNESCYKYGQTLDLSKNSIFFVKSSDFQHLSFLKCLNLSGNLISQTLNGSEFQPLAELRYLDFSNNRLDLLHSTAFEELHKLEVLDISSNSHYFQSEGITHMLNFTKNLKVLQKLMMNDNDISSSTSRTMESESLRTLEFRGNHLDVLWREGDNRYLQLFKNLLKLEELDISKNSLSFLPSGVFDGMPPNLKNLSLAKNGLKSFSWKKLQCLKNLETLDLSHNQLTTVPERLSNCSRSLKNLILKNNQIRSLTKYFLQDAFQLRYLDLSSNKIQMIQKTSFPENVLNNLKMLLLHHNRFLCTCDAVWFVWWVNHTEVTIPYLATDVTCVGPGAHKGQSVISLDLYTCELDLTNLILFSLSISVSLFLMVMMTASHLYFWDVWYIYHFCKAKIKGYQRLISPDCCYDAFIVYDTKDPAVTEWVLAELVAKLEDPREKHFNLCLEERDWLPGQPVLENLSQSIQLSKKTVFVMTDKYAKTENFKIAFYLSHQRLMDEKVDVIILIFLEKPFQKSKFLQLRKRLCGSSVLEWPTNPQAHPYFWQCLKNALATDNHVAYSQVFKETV
Description: TLR7 inhibition reporter assay (HEK-Blue SEAP reporter). The note with it: HEK-Blue cells overexpressing human TLR7; gardiquimod 7.5 μM; 22 hour incubation. The method in brief:
as §1

In another experiment the target is T3, human TLR9 (Homo sapiens, UniProt Q9NR96).
T3 construct: host or cells: HEK-Blue cells
T3 sequence (Q9NR96 26-1032): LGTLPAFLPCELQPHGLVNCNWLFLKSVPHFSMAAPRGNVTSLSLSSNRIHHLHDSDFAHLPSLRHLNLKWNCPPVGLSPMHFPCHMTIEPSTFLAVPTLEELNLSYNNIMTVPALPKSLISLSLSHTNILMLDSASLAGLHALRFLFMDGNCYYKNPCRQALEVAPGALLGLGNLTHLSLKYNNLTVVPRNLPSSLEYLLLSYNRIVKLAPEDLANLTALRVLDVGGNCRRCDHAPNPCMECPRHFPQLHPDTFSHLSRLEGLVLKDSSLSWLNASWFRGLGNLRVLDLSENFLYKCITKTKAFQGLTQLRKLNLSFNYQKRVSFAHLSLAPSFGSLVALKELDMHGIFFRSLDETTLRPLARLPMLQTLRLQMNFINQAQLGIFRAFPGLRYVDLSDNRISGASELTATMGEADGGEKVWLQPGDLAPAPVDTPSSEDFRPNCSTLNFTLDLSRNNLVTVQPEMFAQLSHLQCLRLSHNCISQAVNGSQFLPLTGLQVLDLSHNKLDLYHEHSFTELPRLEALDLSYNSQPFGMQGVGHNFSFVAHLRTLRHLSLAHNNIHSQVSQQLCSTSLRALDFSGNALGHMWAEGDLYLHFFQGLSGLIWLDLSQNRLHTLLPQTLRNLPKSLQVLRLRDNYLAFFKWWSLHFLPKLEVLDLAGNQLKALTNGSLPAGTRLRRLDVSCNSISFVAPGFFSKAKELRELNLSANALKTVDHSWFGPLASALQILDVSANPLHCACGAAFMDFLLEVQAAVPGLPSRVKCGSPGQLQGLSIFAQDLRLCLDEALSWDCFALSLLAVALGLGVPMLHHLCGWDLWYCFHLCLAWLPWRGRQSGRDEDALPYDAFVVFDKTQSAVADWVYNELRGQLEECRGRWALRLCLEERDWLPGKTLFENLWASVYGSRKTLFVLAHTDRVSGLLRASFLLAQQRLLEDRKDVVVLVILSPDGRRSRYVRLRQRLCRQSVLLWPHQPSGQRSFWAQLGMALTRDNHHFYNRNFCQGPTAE
Description: TLR9 inhibition reporter assay (HEK-Blue SEAP reporter). As to conditions: HEK-Blue cells overexpressing human TLR9; ODN2006 5 nM; 22 hour incubation. The method in brief: as §1

A value given as a limit tells only on which side of the number the result lay.

Consider `COc1ccc(-c2[nH]c3ccc(N(C)CC4CCCN4C)cc3c2C(C)C)cc1OC` (stereo not drawn) [Example 104, 2-(3,4-dimethoxyphenyl)-3-isopropyl-N-methyl-N-((1-methylpyrrolidin-2-yl)methyl)-1H-indol-5-amine], for which the values for the IC50 against human TLR8, against human TLR7 and against human TLR9 were 9.7 nM, 1310 nM and 6820 nM, respectively.
For the compound `CCNCCOc1ccc(Nc2ccc3[nH]c(-c4ccc(OC)c(OC)c4)c(C(C)C)c3c2)cc1` [Example 105, 2-(3,4-dimethoxyphenyl)-N-(4-(2-(ethylamino)ethoxy)phenyl)-3-isopropyl-1H-indol-5-amine], the values for the IC50 on human TLR8, against human TLR7 and at human TLR9 were 17 nM, 1400 nM and 2260 nM, respectively.
In the case of `COc1ccc(-c2[nH]c3ccc(Nc4ccc(OCCN5CCCC5)cc4)cc3c2C(C)C)cc1OC` [Example 106, 2-(3,4-dimethoxyphenyl)-3-isopropyl-N-(4-(2-(pyrrolidin-1-yl)ethoxy)phenyl)-1H-indol-5-amine], the IC50 – broadly, the midpoint of a concentration-inhibition curve – was determined as 35 nM at human TLR8, 1400 nM against human TLR7 and 1430 nM against human TLR9.
The like results for `COc1ccc(-c2[nH]c3ccc(N4CCC(=O)N(CCN(C)C)CC4)cc3c2C(C)C)cc1OC` [Example 107, 1-(2-(3,4-dimethoxyphenyl)-3-isopropyl-1H-indol-5-yl)-4-(2-(dimethylamino)ethyl)-1,4-diazepan-5-one] were, in that order, 55 nM, 31 nM and 3460 nM.
As to `COc1ccc(-c2[nH]c3ccc(N4CCC(N(C)C)CC4)cc3c2C(C)C)cc1OC` [Example 108, 1-(2-(3,4-dimethoxyphenyl)-3-isopropyl-1H-indol-5-yl)-N,N-dimethylpiperidin-4-amine], the IC50 against human TLR8 was 10 nM; against human TLR7, 23 nM; against human TLR9 it was 2530 nM.
For `COc1ccc(-c2[nH]c3ccc(N4CCC(N)(CC#N)CC4)cc3c2C(C)C)cc1OC` [Example 109, 2-(4-amino-1-(2-(3,4-dimethoxyphenyl)-3-isopropyl-1H-indol-5-yl)piperidin-4-yl)acetonitrile], the IC50 is 211 nM against human TLR8, 28 nM against human TLR7 and 15100 nM against human TLR9.
Taken in the same sequence, the figures for `COc1ccc(-c2[nH]c3ccc(N4CCC(C(C)(C)O)CC4)cc3c2C(C)C)cc1OC` [Example 110, 2-(1-(2-(3,4-dimethoxyphenyl)-3-isopropyl-1H-indol-5-yl)piperidin-4-yl)propan-2-ol] were 328 nM, 194 nM and 29500 nM.
The like results for `Cc1c(-c2[nH]c3ccc(N4CCC(N(C)C)CC4)cc3c2C(C)C)cn(C)c(=O)c1Cl` [Example 111, 3-chloro-5-(5-(4-(dimethylamino)piperidin-1-yl)-3-isopropyl-H-indol-2-yl)-1,4-dimethyl-114,215-pyridin-2-one] were, in that order, 1.8 nM, 2.4 nM and 3460 nM.
The like results for `CNC1(CC#N)CCN(c2ccc3[nH]c(-c4ccc(OC)c(OC)c4)c(C(C)C)c3c2)CC1` [Example 112, 2-(1-(2-(3,4-dimethoxyphenyl)-3-isopropyl-1H-indol-5-yl)-4-(methylamino)piperidin-4-yl)acetonitrile] were, in that order, 9.4 nM, 62 nM and 6180 nM.
On to `COc1ccc(-c2[nH]c3ccc(N4CCCCC4c4ccncc4)cc3c2C(C)C)cc1OC` (stereo not drawn) [Example 113, 2-(3,4-dimethoxyphenyl)-3-isopropyl-5-(2-(pyridin-4-yl)piperidin-1-yl)-1H-indole], for which the figures for the IC50 against human TLR8, on human TLR7 and against human TLR9 were 1280 nM, 1200 nM and over 50000 nM, respectively.
As to `COc1ccc(-c2[nH]c3ccc(N4CCC(OCCN(C)C)CC4)cc3c2C(C)C)cc1OC` [Example 114, 2-((1-(2-(3,4-dimethoxyphenyl)-3-isopropyl-H-indol-5-yl)piperidin-4-yl)oxy)-N,N-dimethylethan-1-amine], the 50% inhibitory concentration (IC50) at human TLR8 came out at 24 nM; against human TLR7, 460 nM; at human TLR9, 951 nM.
Taken in the same sequence, the figures for `COc1ccc(-c2[nH]c3ccc(N4CCC(CCN5CCCC5)CC4)cc3c2C(C)C)cc1OC` [Example 115, 2-(3,4-dimethoxyphenyl)-3-isopropyl-5-(4-(2-(pyrrolidin-1-yl)ethyl)piperidin-1-yl)-1H-indole] were 61 nM, 31 nM and 621 nM.
As for `COc1ccc(-c2[nH]c3ccc(N4CCC(N5CC(O)CC5=O)CC4)cc3c2C(C)C)cc1OC` (stereo not drawn) [Example 116, 1-(1-(2-(3,4-dimethoxyphenyl)-3-isopropyl-1H-indol-5-yl)piperidin-4-yl)-4-hydroxypyrrolidin-2-one], the 50% inhibitory concentration (IC50) on human TLR8 came to 94 nM; on human TLR7, 936 nM; on human TLR9, 18800 nM.
The like results for `COc1ccc(-c2[nH]c3ccc(N4CCC(C)(N5CCOCC5)CC4)cc3c2C(C)C)cc1OC` [Example 117, 4-(1-(2-(3,4-dimethoxyphenyl)-3-isopropyl-H-indol-5-yl)-4-methylpiperidin-4-yl)morpholine] were, in that order, 5.3 nM, 188 nM and 5050 nM.
